What is called LD50 is the dose expected to kill half of the subjects tested.

Where two headings read alike, the source gives them in different places.

Data on nine compounds can be found in patent US4464383A, “Immunomodulator containing trithiazole pentamethine cyanine derivative” (priority 1981, dated 1984).

A short description of data set [1]: Inhibition of adjuvant arthritis in rat, preventive effect (paw volume). Type of data set: in vivo, SD rats. The method, then:
(§1) Five SD rats 7 to 8 weeks old weighing about 150 g. were used as one group. A dispersion of mycobacterium butyricium in liquid parrafin in a concentration of 12 mg./ml. was injected intracutaneously into the footpad of the right hind foot in a dose of 0.05 ml./rat to cause an adjuvant arthritis (AA). For 30 days after the injection of the adjuvant, the volume of both hind feet was measured by a mercury plethysmography and AA was estimated from the obtained measurements.
(§2) With respect to Compound Nos. 1, 3 and 10, the preventive effect on AA was examined. The oral administration of the compound to be tested was begun at the same time as the administration of the adjuvant and continued for 30 days once a day. The same test was carried out with D-penicillamine and Levamisole.

A further data set can be described thus: Acute toxicity (LD50). The following applies: mouse, in vivo, mice, 7 days observation. As for the experimental part:
Eight male ddY mice 5 to 6 weeks old weighing 25 to 30 g. were used as one group. A 5% suspension of the compound to be tested in gum arabic was administered intraperitoneally, intravenously or orally using a stomach tube. The animals were kept under observation for 7 days. The numbers of dead animals were counted and the LD50 values were calculated by the Van der Warden method.

The next data set is described as follows: Clinical test, Case 2. Type of data set: in vivo, patient.
The conditions of data set [2]: prior art; cited from earlier work.
A short description of data set [3]: Change in body weight of rat with adjuvant arthritis. In kind it is in vivo, SD rats. The settings on record: D-penicillamine or Levamisole; 1st, 10th, 20th and 30th day. As for the experimental part: as §1, §2
During the test of the preventive effect on AA as described in the above (1), the body weight of each rat was measured on 1st, 10th, 20th, and 30th day.

Data set [4] is described as follows: Effect on carrageenan-induced edema in rat. The following applies: dose 0.005 to 0.05 μg./animal, oral, 30 minutes before carrageenan. Type of data set: in vivo, SD rats. As for the experimental part: Five SD rats 7 to 8 weeks old weighing about 150 g. were used as one group. A 1% dispersion of carrageenan was injected intracutaneously into the foot pad of the right hind foot in a dose of 0.1 ml./rat. For 6 hours after the injection, the volume of the foot subjected to the injection was measured by a mercury plethysmography and the carrageenan-induced edema was estimated from the obtained measurements. Compound No. 3 was orally administered 30 minutes before the injection of the carrageenan dispersion.

A short description of a further data set: Clinical test, Case 1. The following applies: 50 μg. once a day, oral. Type of data set: in vivo, patient.
Data set [5] is described as follows: Pharmacological activities and side-effects, general statements.
[6] abbreviates: dose 0.05 μg./animal, oral, once a day for 30 days.
The mark [7] stands for this setting: dose 1.5 mg./animal (even at a higher dose).
The mark [8] stands for this setting: 100 μg. once a day, oral, after 5 days.
Setting [9] is: after 3 weeks, twice a week after 7 days, oral.

In the case of `CCCCCCCCCCCCN1C(C)=CSC1=CC=C(C=Cc1scc(C)[n+]1CCCCCCCCCCCC)c1scc(C)[n+]1CCCCCCCCCCCC` [compound 10], the “inhibition of AA, preventive effect” value in data set [1] (setting [6]) is “inhibit AA”. For the same compound, the LD50 at 168 h in “Acute toxicity (LD50)” (ip, i.p., read-out: LD50 i.p.) was 300 mg/kg; in the data set “Acute toxicity (LD50)” (iv, i.v., read-out: LD50 i.v.), 45.2 mg/kg; in the data set “Acute toxicity (LD50)” (po, p.o., read-out: LD50 p.o.), > 1400 mg/kg.
For `COc1ccc2c(c1)c(CC(=O)O)c(C)n2C(=O)c1ccc(Cl)cc1` [Indometacin, reference compound], the “side-effect of the medicines used before” value in the data set “Clinical test, Case 2” (human, in vivo) is “gastric ulcer, urticaria and diarrhea”. Moreover, the “condition of the patient on previous treatment” value in the data set “Clinical test, Case 2” (suppository of Shiozol and that of Indometacin, before Compound No. 3) is “took a turn for the worse”.
For `CC1=CSC(=CC=C(C=Cc2scc(C)[n+]2C)c2scc(C)[n+]2C)N1C` [compound 1], the “inhibition of AA, preventive effect” value in data set [1] (setting [6]) was “inhibit AA”. Further, the LD50 at 168 h in the data set “Acute toxicity (LD50)” (ip, i.p., read-out: LD50 i.p.) is 23.4 mg/kg; in “Acute toxicity (LD50)” (iv, i.v., read-out: LD50 i.v.), 6.25 mg/kg; in “Acute toxicity (LD50)” (po, p.o., read-out: LD50 p.o.), > 1400 mg/kg.
On to `O=C([O-])c1ccccc1Nc1cc(Cl)ccc1C(=O)[O-].[Na+].[Na+]` [CCA, N-(2-carboxyphenyl)-4-chloroanthranilic acid disodium salt], for which, in data set [2], the “toxicity of known immunomodulators” value is reported as “severe toxicities”.
Consider `CCCCCCCCN1C(C)=CS\C1=C/C=C(/C=C/c1scc(C)[n+]1CCCCCCCC)c1scc(C)[n+]1CCCCCCCC`, for which the LD50 at 168 h was 120 mg/kg in “Acute toxicity (LD50)” (ip, i.p., read-out: LD50 i.p.); 13.5 mg/kg in the data set “Acute toxicity (LD50)” (iv, i.v., read-out: LD50 i.v.); > 1400 mg/kg in the data set “Acute toxicity (LD50)” (po, p.o., read-out: LD50 p.o.).
For the compound `CC(C)(S)[C@@H](N)C(=O)O` [D-penicillamine], the “inhibition of AA, preventive effect” value in data set [1] (setting [7]) was “do not inhibit AA”. Moreover, the “change in body weight compared with Control” value in data set [3] is “no significant difference”. The “toxicity of known immunomodulators” value in data set [2] is “severe toxicities”.
On to `c1ccc([C@H]2CN3CCSC3=N2)cc1` [Levamisole], for which the “inhibition of AA, preventive effect” value in data set [1] (setting [7]) is “do not inhibit AA”. Besides, the “change in body weight compared with Control” value in data set [3] was “no significant difference”. In addition, the “toxicity of known immunomodulators” value in data set [2] is reported as “severe toxicities”.
Take `CCCCCCCN1C(C)=CS\C1=C/C=C(/C=C/c1scc(C)[n+]1CCCCCCC)c1scc(C)[n+]1CCCCCCC`: the “inhibition of AA, preventive effect” value is given as “inhibited AA” in data set [1] (dose 0.005 μg./animal, oral, once a day for 30 days) and “inhibit AA” in data set [1] (setting [6]). The “anti-inflammatory action on carrageenan-induced edema” value in data set [4] was “did not show anti-inflammatory action”. Moreover, the median lethal dose (LD50) at 168 h in the data set “Acute toxicity (LD50)” (ip, i.p., read-out: LD50 i.p.) was 100 mg/kg; in the data set “Acute toxicity (LD50)” (iv, i.v., read-out: LD50 i.v.) it was 12 mg/kg; in “Acute toxicity (LD50)” (po, p.o., read-out: LD50 p.o.) it was > 1400 mg/kg. The side-effect entry is recorded as “no side-effect” in “Clinical test, Case 1” and “No side-effect was observed” in “Clinical test, Case 2” (100 μg., oral). Moreover, the therapeutic effect result in “Clinical test, Case 1” is recorded as “excellent therapeutic effect”. Further, in “Clinical test, Case 1” (after 5 days), the “inflammation at wrist articulatio coxae and violent pain” value is “almost removed”. The “stiffness in the morning and systemic malaise” value in the data set “Clinical test, Case 1” (after 5 days) is on record as “relieved”. Moreover, in “Clinical test, Case 1” (morning of the seventh day), the mobility entry is “could arise from a sickbed and go down the stairs with ease”. For the same compound, the “systemic malaise and stiffness in the morning” value in “Clinical test, Case 2” (100 μg. once a day, oral, after 3 days) is given as “relieved”. In addition, the “inflammation at the joints” value in “Clinical test, Case 2” (setting [8]) is recorded as “relieved”. Besides, in “Clinical test, Case 2” (setting [8]), the “need for suppository of Indometacin” value is “no necessity for administering the suppository of Indometacin”. Besides, in “Clinical test, Case 2” (setting [8]), the sleep result is on record as “became to sleep well”. Besides, in “Clinical test, Case 2” (setting [9]), the ability to walk entry is recorded as “became to be able to walk”. Also, the “swelling (hydrocele) at the joints” value in the data set “Clinical test, Case 2” (setting [9]) is “improved”. In data set [5] (cytotoxicity (e.g. granulocytopenia), vomiting, nausea, pyrexia, rash and myasthenia), the side-effects result was “does not have side-effects”. Further, the figures for the immunomodulating action entry in data set [5] (immunological function enhanced), in data set [5] (immunological function lowered) and in data set [5] (normal immunological function) were “shows an immunosuppressive effect”, “shows an immunological activating effect” and “has no influence on the normal immunological function”, respectively. The known pharmacological activities result in data set [2] is “antibacterial activity, the acceleration of wound healing, the stimulation of reticular hematopoietic organ and endocrine organ, and the enhancement of antibody formation”.
For `CCCCN1C(C)=CSC1=CC=C(C=Cc1scc(C)[n+]1CCCC)c1scc(C)[n+]1CCCC` [compound 2], the LD50 at 168 h in the data set “Acute toxicity (LD50)” (ip, i.p., read-out: LD50 i.p.) was 51 mg/kg; in the data set “Acute toxicity (LD50)” (iv, i.v., read-out: LD50 i.v.), 8.5 mg/kg; in the data set “Acute toxicity (LD50)” (po, p.o., read-out: LD50 p.o.), > 1400 mg/kg.
